Measured values as given in the supplement of paper PMC10307832.

Legend:
Assay in all cases: relative viability (nuclei count vs DMSO), 5 days (fraction); higher = more cells survive
[1] = compound: C1COCCN1C2=NC(=NC3=C2OC4=C3C=CC=N4)C5=CC(=CC=C5)NC(=O)C6=CN=C(C=C6)N + Cc1nc(Nc2ncc(C(=O)Nc3c(C)cccc3Cl)s2)cc(N2CCN(CCO)CC2)n1 [Dasatinib] (partner 0.075 µM)
Procedure, shortened: (§1)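 Relative viability equals treated-well nuclei counts divided by vehicle-well nuclei counts. Counts came from 4× images of lung cancer cell lines grown in 1536-well plates for 5 days after pin-tool dosing on the day after seeding. Dosing used one drug alone or a fixed anchor-drug dose plus five library-drug doses (not always all listed) in √10 steps, and values are medians of duplicate plates.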

Entinostat + Luminespib = compound: Nc1ccccc1NC(=O)c1ccc(CNC(=O)OCc2cccnc2)cc1 [Entinostat] + CCNC(=O)c1noc(-c2cc(C(C)C)c(O)cc2O)c1-c1ccc(CN2CCOCC2)cc1 [Luminespib] (partner 0.01 µM)
Procedure, shortened: as §1

SGI-1776 + Pictilisib = compound: CN1CCC(CNc2ccc3ncc(-c4cccc(OC(F)(F)F)c4)n3n2)CC1 [SGI-1776] + CS(=O)(=O)N1CCN(Cc2cc3nc(-c4cccc5[nH]ncc45)nc(N4CCOCC4)c3s2)CC1 [Pictilisib] (partner 1 µM)
Procedure, shortened: as §1

Entinostat + Lapatinib = compound: Nc1ccccc1NC(=O)c1ccc(CNC(=O)OCc2cccnc2)cc1 [Entinostat] + CS(=O)(=O)CCNCc1ccc(-c2ccc3ncnc(Nc4ccc(OCc5cccc(F)c5)c(Cl)c4)c3c2)o1 [Lapatinib] (partner 2 µM)
Procedure, shortened: as §1

Cell Line	relative viability ([1]; first compound 0.02 µM)	relative viability ([1]; first compound 0.06325 µM)	relative viability ([1]; first compound 0.2 µM)	relative viability ([1]; first compound 0.6325 µM)	relative viability ([1]; first compound 2 µM)	relative viability (Entinostat + Luminespib; first compound 0.02 µM)	relative viability (Entinostat + Luminespib; first compound 0.06325 µM)	relative viability (Entinostat + Luminespib; first compound 0.2 µM)	relative viability (Entinostat + Luminespib; first compound 0.6325 µM)	relative viability (Entinostat + Luminespib; first compound 2 µM)	relative viability (SGI-1776 + Pictilisib; first compound 0.08 µM)	relative viability (SGI-1776 + Pictilisib; first compound 0.8 µM)	relative viability (SGI-1776 + Pictilisib; first compound 2.53 µM)	relative viability (SGI-1776 + Pictilisib; first compound 8 µM)	relative viability (Entinostat + Lapatinib; first compound 0.02 µM)	relative viability (Entinostat + Lapatinib; first compound 0.06325 µM)	relative viability (Entinostat + Lapatinib; first compound 0.2 µM)	relative viability (Entinostat + Lapatinib; first compound 0.6325 µM)	relative viability (Entinostat + Lapatinib; first compound 2 µM)
SW 900	0.54	0.538	0.613	0.518	0.448	0.185	0.157	0.222	0.163	0.202									
NCI-H1944	0.201	0.211	0.206	0.215	0.207	0.73	0.625	0.397	0.329	0.183	0.355	0.334	0.343	0.324	0.851	0.768	0.787	0.354	0.271
NCI-H838	0.291	0.299	0.271	0.314	0.249	0.291	0.257	0.291	0.196	0.201	0.446	0.398	0.414	0.277	1.13	1.12	0.983	0.696	0.255
NCI-H1651	0.482	0.461	0.39	0.4	0.22	0.795	1.01	0.742	0.724	0.64	0.671	0.559	0.421	0.432	0.816	0.905	0.925	0.726	0.217
HCC-827	0.282	0.294	0.414	0.233	0.308	0.505	0.309	0.401	0.202	0.197	1.02	1.21	1.09	0.877	0.18	0.184	0.126	0.147	0.17
HCC-366	0.647	0.745	0.691	0.576	0.26						0.158	0.192	0.137	0.0802	1.02	1.04	0.66	0.218	0.0452
HARA	0.32	0.265	0.216	0.23	0.221	0.534	0.732	0.752	0.584	0.201	0.445	0.373	0.306	0.243	0.792	0.872	0.786	0.671	0.374
NCI-H441	0.685	0.783	0.609	0.486	0.415	0.401	0.34	0.29	0.245	0.176	0.399	0.62	0.564	0.299					
NCI-H1299											0.821	0.832	0.596	0.505	0.927	0.933	0.956	0.805	0.571
RERF-LC-KJ	0.944	1	0.79	0.713	0.559	1.13	1.16	1.02	0.438	0.322	0.556	0.533	0.568	0.353	0.775	0.794	0.816	0.476	0.321
CAL-12T	0.467	0.519	0.396	0.324	0.338	0.502	0.402	0.459	0.461	0.364	0.559	0.592	0.341	0.385	0.606	0.762	0.55	0.501	0.466
COR-L 105	0.307	0.363	0.22	0.308	0.284	0.803	0.749	0.72	0.561	0.345	0.409	0.389	0.342	0.308	0.362	0.357	0.358	0.328	0.34
NCI-H2405	0.209	0.229	0.223	0.215	0.213	0.789	0.767	0.944	0.808	0.597	0.478	0.507	0.309	0.257	1.16	1.42	1.08	1.04	0.625
NCI-H2228	0.647	0.487	0.439	0.33	0.246	0.187	0.132	0.135	0.184	0.102	0.446	0.38	0.286	0.177	1.12	1.02	1.08	0.457	0.315
PC-14	0.229	0.229	0.218	0.138	0.175	0.135	0.256	0.151	0.143	0.114	0.667	0.681	0.747	0.195	0.293	0.29	0.146	0.151	0.105
IA-LM											0.281	0.328	0.389	0.242	0.892	0.926	1.17	0.601	0.514
A549											0.566	0.513	0.392	0.267	1	0.956	0.92	0.755	0.481
NCI-H2342	0.296	0.306	0.283	0.327	0.301	0.69	0.729	0.744	0.589	0.553									
NCI-H1623	0.516	0.469	0.516	0.527	0.498	0.632	0.554	0.443	0.472	0.279									
SW 1573	0.401	0.565	0.458	0.378	0.247	0.531	0.35	0.162	0.262	0.217	0.452	0.449	0.424	0.393	1.42	1.23	1.19	1.29	0.949

Cell Line	relative viability ([1]; first compound 0.02 µM)	relative viability ([1]; first compound 0.06325 µM)	relative viability ([1]; first compound 0.2 µM)	relative viability ([1]; first compound 0.6325 µM)	relative viability ([1]; first compound 2 µM)	relative viability (Entinostat + Luminespib; first compound 0.02 µM)	relative viability (Entinostat + Luminespib; first compound 0.06325 µM)	relative viability (Entinostat + Luminespib; first compound 0.2 µM)	relative viability (Entinostat + Luminespib; first compound 0.6325 µM)	relative viability (Entinostat + Luminespib; first compound 2 µM)	relative viability (SGI-1776 + Pictilisib; first compound 0.08 µM)	relative viability (SGI-1776 + Pictilisib; first compound 0.8 µM)	relative viability (SGI-1776 + Pictilisib; first compound 2.53 µM)	relative viability (SGI-1776 + Pictilisib; first compound 8 µM)	relative viability (Entinostat + Lapatinib; first compound 0.02 µM)	relative viability (Entinostat + Lapatinib; first compound 0.06325 µM)	relative viability (Entinostat + Lapatinib; first compound 0.2 µM)	relative viability (Entinostat + Lapatinib; first compound 0.6325 µM)	relative viability (Entinostat + Lapatinib; first compound 2 µM)
NCI-H2087	0.942	0.913	0.799	0.845	0.441	0.157	0.125	0.18	0.127	0.143	0.953	0.974	0.826	0.899	1.03	0.792	0.861	0.536	0.54
NCI-H520	0.227	0.188	0.219	0.177	0.131	0.192	0.225	0.227	0.281	0.228	0.319	0.323	0.225	0.204	1.03	0.946	0.864	0.776	0.301
Calu-6											0.974	0.911	0.808	0.482	1.09	0.967	0.963	0.698	0.498
SK-LU-1	0.153	0.188	0.168	0.176	0.16	0.207	0.202	0.227	0.2	0.212	0.609	0.623	0.409	0.361	0.825	0.775	0.55	0.573	0.516
LCLC-97TM1	0.865	0.939	0.762	0.914	0.675	0.939	0.798	0.695	0.808	0.491	0.25	0.296	0.196	0.179	0.942	1.21	0.784	0.41	0.326
HCC-15	0.677	0.612	0.567	0.561	0.476	0.352	0.301	0.261	0.359	0.257	0.657	0.839	0.665	0.468	0.866	0.779	0.726	0.345	0.288
H3255	0.358	0.362	0.35	0.295	0.315	1.02	0.954	0.652	0.613	0.321	0.479	0.451	0.456	0.392	0.21	0.309	0.161	0.145	0.156
NCI-H1915	0.277	0.329	0.331	0.349	0.264	0.737	0.722	0.821	0.567	0.373	0.934	0.979	0.964	0.838	0.985	1.05	1.01	0.633	0.315
NCI-H1650	0.336	0.29	0.287	0.278	0.248	0.214	0.198	0.185	0.212	0.195	0.586	0.542	0.355	0.146	0.79	0.897	0.888	0.521	0.329
NCI-H647	0.196	0.2	0.174	0.164	0.0709	0.223	0.182	0.23	0.177	0.133	0.474	0.434	0.247	0.219	0.936	0.868	0.996	0.322	0.101
NCI-H2126	0.691	0.587	0.528	0.507	0.551	0.815	0.906	0.894	0.766	0.462	0.499	0.534	0.501	0.468	0.794	0.78	0.759	0.421	0.385
NCI-H727	0.388	0.351	0.295	0.442	0.345	0.326	0.413	0.364	0.328	0.459	0.398	0.626	0.376	0.285	0.941	0.804	0.793	0.533	0.451
NCI-H522	0.936	0.983	0.899	0.877	0.837	1.21	1.33	1.38	1.1	0.649									
EMC-BAC-2	0.334	0.378	0.317	0.356	0.294	1.15	1.15	1.02	0.768	0.529	0.539	0.555	0.567	0.485	0.873	0.956	0.901	0.682	0.499
HCC-44						1.04	0.889	0.741	0.505	0.324	0.662	0.589	0.653	0.42	1	0.88	0.7	0.258	0.311
HCC-78	0.406	0.449	0.456	0.345	0.403						0.27	0.231	0.199	0.164	0.829	0.702	0.33	0.169	0.169
ChaGo-K-1	0.555	0.625	0.605	0.508	0.522	0.765	0.523	0.487	0.596	0.503	0.699	0.844	0.49	0.415					
LCLC-103H	0.433	0.468	0.479	0.514	0.344	0.979	0.967	0.909	0.715	0.288	0.752	0.608	0.554	0.45					
NCI-H1703											0.242	0.22	0.251	0.181	1.22	1.17	1.59	1.05	0.453
EBC-1											0.436	0.374	0.299	0.15	0.213	0.211	0.208	0.181	0.184
